{"source": "patent US20020026053A1", "about": "“Novel 3-(substituted) -2- indolinones compounds and use thereof as inhibitors of protein kinase activity” (priority 1997, published 2002)", "system": "FLK-1 receptor", "experiment": "FLK-1 Assay (cellular/catalytic ELISA, VEGF-stimulated phosphotyrosine)", "assay_type": "cell-based", "set-up": "concentration or dose not given beside the values", "outline": "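NIH3T3 C7#3 cells engineered to express Flk-1 were serum-starved overnight (0.1% FBS), then exposed to compound for 2 h at 37 °C (final dilution 1:200, 0.5% DMSO) before VEGF stimulation. Lysates captured on anti-FLK-1 antiserum plates; phosphotyrosine detected by UB40 antibody/POD-ABTS ELISA versus untreated controls.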"}
{"smiles": "Cc1c(Br)cc(Br)c2c1C(=Cc1ccc([N+](=O)[O-])c(O)c1)C(=O)N2", "note": "[10724/H04]", "values": [{"measurement": "Flk Kinase % Inhibition (P.110)", "result": "−3.0", "unit": "%"}]}
